Experimental data reported in US20230406865A1, “CRYSTAL FORM OF FREE BASE OF INHIBITOR CONTAINING BICYCLIC RING DERIVATIVE AND PREPARATION METHOD AND APPLICATION OF CRYSTAL FORM” (SHANGHAI HANSOH BIOMEDICAL CO., LTD., priority 2020, published 2023).
In brackets after ≈: the same amount, converted by molar mass. Read-outs that look alike come from different tables or passages of the source.

Tests used:
Format in all cases: physicochemical
[1] = Hygroscopicity (DVS) of crystal form I
Protocol: The crystal form I of the free base of the compound was placed in the saturated water vapor at the […] relative humidity to make the compound reach dynamic equilibrium with the water vapor, and the percentage of hygroscopic weight gain of the compound was calculated after equilibrium.

[2] = Thermodynamic solubility in different media at 37° C.; settings: thermodynamic from solid, read-out: Solubility of crystal form I
Protocol: To compare the solubility of the crystal form I of the free base in pH 1-8 USP buffer, artificial simulated gastric fluid (FaSSGF), fasting artificial simulated intestinal fluid (FaSSIF), non-fasting artificial simulated intestinal fluid (FeSSIF) and pure water and other medium to provide a basis for the assessment of druggablitity.
About 1 mg of the crystal form I of the free base was mixed and suspended in different mediums for 4 hours.

[3] = Solid stability of crystal form I (HPLC impurities); settings: 14 days
Protocol: To investigate the physical and chemical stability of the compound under light 5000 lx, high temperature 60° C., high humidity 92.5% RH, high temperature and high humidity 50° C./75% RH conditions to provide a basis for the storage of the compound.
[…] 5000 lx, high temperature 60° C., high humidity 92.5% RH, high temperature and high humidity 50° C./75% RH, and the content was determined by HPLC with external standard method, and the changes of the related substances were calculated by the area normalization method for chromatographic peak.

[4] = High temperature and high humidity/50° C./75% RH

hygroscopic weight gain ([1]; RH80%, 25° C.): about 0.43% | hygroscopicity ([1]; RH80%, 25° C.): slightly hygroscopicity | XRPD pattern / crystal form after moisture absorption and desorption ([1]; two cycles at 0-95% RH): the crystal form has not transformed | solubility at 4 h ([2]; FaSSGF (artificial simulated gastric fluid), fassgf or other biorelevant, FaSSGF, 37° C.): > 2000 µg/mL | solubility at 4 h ([2]; FaSSIF (fasting artificial simulated intestinal fluid), FaSSIF, 37° C.): 1 µg/mL (≈ 1.87 µM) | solubility at 4 h ([2]; FeSSIF (non-fasting artificial simulated intestinal fluid), FeSSIF, 37° C.): 90 µg/mL (≈ 168 µM) | solubility at 4 h ([2]; USP buffer pH 1, simulated gastric fluid, pH 1, 37° C.): > 2000 µg/mL | solubility at 4 h ([2]; USP buffer pH 2, simulated gastric fluid, pH 2, 37° C.): > 2000 µg/mL | solubility at 4 h ([2]; USP buffer pH 3, aqueous buffer, pH 3, 37° C.): 710 µg/mL (≈ 1330 µM) | solubility at 4 h ([2]; USP buffer pH 4, aqueous buffer, pH 4, 37° C.): 370 µg/mL (≈ 691 µM) | solubility at 4 h ([2]; USP buffer pH 5, aqueous buffer, pH 5, 37° C.): 20 µg/mL (≈ 37.3 µM) | solubility at 4 h ([2]; USP buffer pH 6, aqueous buffer, pH 6, 37° C.): 1 µg/mL (≈ 1.87 µM) | Increase of total impurities % ([3]; High humidity/92.5% RH): <0.02% | Maximum increase of single impurity % ([3]; High humidity/92.5% RH): <0.02% | Increase of total impurities % [3, 4]: <0.02% | Maximum increase of single impurity % [3, 4]: 0.11% | Increase of total impurities % ([3]; High temperature/60° C.): <0.02% | Maximum increase of single impurity % ([3]; High temperature/60° C.): 0.06% | Increase of total impurities % ([3]; Light/5000 lx): <0.02% | Maximum increase of single impurity % ([3]; Light/5000 lx): 0.18%
SMILES: C#C[C@@](C)(O)COc1cc(-c2ccc(N3CC4CC(C3)N4Cc3ccc(OC)nc3)nc2)c2c(C#N)cnn2c1 [crystal form I, 6-(((R)-2-hydroxy-2-methylbut-3-yn-1-yl)oxy)-4-(6-(6-((6-methoxypyridin-3-yl)methyl)-3,6-diazabicyclo[3.1.1]heptan-3-yl)pyridin-3-yl)pyrazolo[1,5-a]pyridine-3-carbonitrile]
